According to patent publication US20210315844A1, “ENDOXIFEN FOR THE TREATMENT OF BIPOLAR I DISORDER” (Jina Pharmaceuticals, Inc., priority 2020, published 2021):

Legend:
[1] = test system: patient of bipolar I disorders; assay: Clinical study: C-SSRS score / risk of suicidal behavior in patients treated with endoxifen enteric coated tablet; type: in vivo, human; settings: day 21 (EOT)
Experimental: Clinical study of an enteric coated tablet comprising endoxifen citrate formulation was carried out by administering to the patient doses of 2 mg to 16 mg of endoxifen citrate in an enteric coated tablet once per day for at least 21 days according to the present application.
This study was a multicenter, randomized, double-blind, double-dummy, active controlled, parallel study to assess the efficacy and safety of endoxifen enteric coated tablet 8 mg and divalproex sodium extended release tablet 1000 mg in patient of bipolar I disorders, this study also evaluated the risk of suicidal behavior in the patient and that has progressed during or after treatment with at least one drug(s) selected from lithium, valproate, carbamazepine or an atypical (except clozapine) or typical antipsychotic.
Total 110 patients were qualified for PP population.

[2] = test system: PKC; settings: relative to tamoxifen; cited from earlier work

CC/C(=C(\c1ccc(O)cc1)c1ccc(OCCNC)cc1)c1ccccc1.O=C(O)CC(O)(CC(=O)O)C(=O)O [Endoxifen, (Z)-1-(4-Hydroxyphenyl)-1-{4-[2-(monomethylamino)ethoxy]phenyl}-2-phenyl-1-butene citrate]
risk of suicidal behavior [1]: zero
potency in inhibiting the PKC activity compared to tamoxifen [2]: four-fold higher potency
